target: T1, hNav1.8 (Homo sapiens, UniProt Q9Y5Y9); assay: hNav1.8 whole-cell patch-clamp electrophysiology (conventional or PatchXpress 7000) in stably transfected HEK cells; type: cell-based; details: not given
T1 construct: host or cells: HEK cells, stably transfected
Source text: The ability of the benzimidazole derivatives of the formula (I) to inhibit the Nav1.8 channel may be measured using the assay described below.
HEK cells stably transfected with hNav1.8, purchased from Millipore (Millipore Corp., Billerica, Mass. 01821), were maintained according to manufacturer's instructions. For electrophysiological studies, cells were removed from the culture flask by brief trypsinization and re-plated at low density onto glass cover slips. Cells were typically used for electrophysiological experiments within 24 to 72 h after plating.
Cover slips containing HEK cells expressing hNav1.8 were placed in a bath on the stage of an inverted microscope and perfused (approximately 1 ml/min) with extracellular solution of the following composition: 138 mM NaCl, 2 mM CaCl2, 5.4 mM KCl, 1 mM MgCl2, 10 mM glucose, and 10 mM HEPES, pH 7.4, with NaOH. […] The osmolarity of the extracellular and intracellular solutions was 300 mOsm/kg and 295 mOsm/kg, respectively. All recordings were made at room temperature (22-24° C.) using AXOPATCH 200B amplifiers and PCLAMP software (Axon Instruments, Burlingame, Calif.).
hNav1.8 currents in HEK cells were measured using the whole-cell configuration of the patch-clamp technique (Hamill et al., 1981). Uncompensated series resistance was typically 2 to 5 mega ohms and >85% series resistance compensation was routinely achieved. As a result, voltage errors were negligible and no correction was applied. Current records were acquired at 20 to 50 KHz and filtered at 5 to 10 KHz.
HEK cells stably transfected with hNav1.8 were viewed under Hoffman contrast optics and placed in front of an array of flow pipes emitting either control or compound-containing extracellular solutions. All compounds were dissolved in dimethyl sulfoxide to make 10 mM stock solutions, which were then diluted into extracellular solution to attain the final concentrations desired.
The voltage-dependence of inactivation was determined by applying a series of depolarizing prepulses (8 sec long in 10 mV increments) from a negative holding potential. The voltage was then immediately stepped to 0 mV to assess the magnitude of the sodium current. Currents elicited at 0 mV were plotted as a function of prepulse potential to allow estimation of the voltage at which 50% of the channels were inactivated (midpoint of inactivation or V1/2). Compounds were tested for their ability to inhibit hNav1.8 sodium channels by activating the channel with a 20 msec voltage step to 0 mV following an 8 second conditioning prepulse to the empirically determined V1/2. Compound effect (% inhibition) was determined by difference in current amplitude before and after application of test compounds. For ease of comparison, “estimated IC50” values were calculated from single point electrophysiology data by the following equation, (tested concentration, uM)×(100-% inhibition/% inhibition). Inhibition values<20% and >80% were excluded from the calculation.
In some cases electrophysiological assays were conducted with PatchXpress 7000 hardware and associated software (Molecular Devices Corp). All assay buffers and solutions were identical to those used in conventional whole-cell voltage clamp experiments described above. hNav1.8 cells were grown as above to 50%-80% confluency and harvested by trypsinization. Trypsinized cells were washed and resuspended in extracellular buffer at a concentration of 1×10^6 cells/ml. The onboard liquid handling facility of the PatchXpress was used for dispensing cells and application of test compounds. Determination of the voltage midpoint of inactivation was as described for conventional whole-cell recordings. Cells were then voltage-clamped to the empirically determined V1/2 and current was activated by a 20 msec voltage step to 0 mV.
Estimated IC50 values for the compounds of formula (I) exemplified above are as follows. […]

T1 sequence (Q9Y5Y9 whole entry): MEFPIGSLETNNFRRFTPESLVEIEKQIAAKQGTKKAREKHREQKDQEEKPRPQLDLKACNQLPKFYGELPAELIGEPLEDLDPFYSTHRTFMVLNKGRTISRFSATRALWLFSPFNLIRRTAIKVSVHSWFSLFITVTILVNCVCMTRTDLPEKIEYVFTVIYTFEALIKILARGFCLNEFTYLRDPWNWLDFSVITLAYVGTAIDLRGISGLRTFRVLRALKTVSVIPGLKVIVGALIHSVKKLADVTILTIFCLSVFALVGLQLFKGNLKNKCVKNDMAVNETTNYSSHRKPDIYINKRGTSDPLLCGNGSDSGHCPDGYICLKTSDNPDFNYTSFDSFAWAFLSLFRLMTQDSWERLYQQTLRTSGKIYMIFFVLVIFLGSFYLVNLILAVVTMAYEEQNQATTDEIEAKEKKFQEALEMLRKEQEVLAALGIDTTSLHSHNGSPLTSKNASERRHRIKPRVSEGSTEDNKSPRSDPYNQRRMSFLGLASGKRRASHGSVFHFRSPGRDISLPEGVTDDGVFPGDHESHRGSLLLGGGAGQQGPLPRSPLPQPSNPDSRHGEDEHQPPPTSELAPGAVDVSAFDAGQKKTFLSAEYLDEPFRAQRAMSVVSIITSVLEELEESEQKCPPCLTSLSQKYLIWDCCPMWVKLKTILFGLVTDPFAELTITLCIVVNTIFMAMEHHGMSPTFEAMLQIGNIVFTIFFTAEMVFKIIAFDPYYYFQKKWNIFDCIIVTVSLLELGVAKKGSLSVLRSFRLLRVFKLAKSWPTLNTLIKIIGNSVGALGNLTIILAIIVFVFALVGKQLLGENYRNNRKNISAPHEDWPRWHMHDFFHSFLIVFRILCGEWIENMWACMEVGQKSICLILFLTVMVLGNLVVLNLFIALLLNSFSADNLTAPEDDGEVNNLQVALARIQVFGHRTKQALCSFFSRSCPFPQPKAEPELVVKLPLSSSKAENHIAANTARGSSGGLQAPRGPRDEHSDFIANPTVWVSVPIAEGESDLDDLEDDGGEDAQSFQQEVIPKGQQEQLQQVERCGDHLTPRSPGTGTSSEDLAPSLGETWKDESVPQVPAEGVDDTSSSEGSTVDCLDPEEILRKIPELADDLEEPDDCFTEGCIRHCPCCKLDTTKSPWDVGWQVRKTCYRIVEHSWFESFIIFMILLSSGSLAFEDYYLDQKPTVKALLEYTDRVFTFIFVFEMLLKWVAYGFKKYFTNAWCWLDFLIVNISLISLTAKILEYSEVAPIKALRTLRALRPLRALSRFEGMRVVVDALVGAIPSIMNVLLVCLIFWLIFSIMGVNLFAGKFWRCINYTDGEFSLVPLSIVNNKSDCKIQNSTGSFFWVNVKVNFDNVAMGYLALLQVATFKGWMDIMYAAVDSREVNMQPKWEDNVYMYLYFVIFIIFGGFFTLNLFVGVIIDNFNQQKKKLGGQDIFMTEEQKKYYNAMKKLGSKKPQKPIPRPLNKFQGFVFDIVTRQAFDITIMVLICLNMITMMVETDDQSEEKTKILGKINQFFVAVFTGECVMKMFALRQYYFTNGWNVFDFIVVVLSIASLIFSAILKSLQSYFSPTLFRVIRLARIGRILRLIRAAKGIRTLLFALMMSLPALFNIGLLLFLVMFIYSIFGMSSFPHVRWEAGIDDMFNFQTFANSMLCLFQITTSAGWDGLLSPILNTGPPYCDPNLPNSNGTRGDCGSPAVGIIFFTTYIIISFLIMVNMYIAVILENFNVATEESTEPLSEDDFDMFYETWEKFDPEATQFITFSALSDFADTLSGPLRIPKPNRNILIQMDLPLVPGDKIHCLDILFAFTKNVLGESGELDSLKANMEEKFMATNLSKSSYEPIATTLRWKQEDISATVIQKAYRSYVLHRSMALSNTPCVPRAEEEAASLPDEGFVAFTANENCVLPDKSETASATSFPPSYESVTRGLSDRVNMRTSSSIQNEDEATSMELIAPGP

Structure (SMILES)	IC50
CC(C)(C)c1ccc2[nH]c(C3(N)CCCCC3)nc2c1 [Example 17, 1-(5-tert-Butyl-1H-benzimidazol-2-yl)cyclohexanamine]	468 nM

same assay, conditions: estimated IC50 calculated from single point % inhibition; HEK cells expressing hNav1.8; 8 sec prepulse to V1/2, 20 msec step to 0 mV; average of replicates; read-out: Nav1.8 EIC50

IC50	Structure (SMILES)
15.4 nM	C[C@@H](C(N)=O)[C@H](N)c1nc2cc(C(C)(C)C)ccc2[nH]1 (single isomer, unassigned) [Example 103]
1580 nM	C[C@H](C(N)=O)[C@H](N)c1nc2cc(C(C)(C)C)ccc2[nH]1 (single isomer, unassigned) [Example 104]
713 nM	N#Cc1ccc(-c2ccc3[nH]c([C@@H]4C[C@@H](O)CN4)nc3c2)cc1 (stereo in doubt) [Example 46, 4-{2-[(2S,4R)-4-Hydroxypyrrolidin-2-yl]-1H-benzimidazol-5-yl}benzonitrile]
44.6 nM	CC[C@@H](C)[C@@H](N)c1nc2cc(C(C)(C)C)ccc2[nH]1 [Example 23, (1R,2R)-1-(5-tert-Butyl-1H-benzimidazol-2-yl)-2-methylbutan-1-amine]
58 nM	CC(C)(C)c1ccc2[nH]c([C@H]3C[C@@H](O)CN3)nc2c1 [Example 24, (3R,5R)-5-(5-tert-Butyl-1H-benzimidazol-2-yl)pyrrolidin-3-ol]
74.2 nM	CC(C)(C)c1ccc2[nH]c([C@H]3CCCN3)nc2c1 [Example 25, 5-tert-Butyl-2-[(2R)-pyrrolidin-2-yl]-1H-benzimidazole]
31.5 nM	CC(C)(C)c1ccc2[nH]c([C@@H]3C[C@@H](O)CN3)nc2c1 [Example 26, (3R,5S)-5-(5-tert-Butyl-1H-benzimidazol-2-yl)pyrrolidin-3-ol]
153 nM	COC(C)(C)C(N)c1nc2cc(C(C)(C)C)ccc2[nH]1 (centres unmarked) [Example 27, 1-(5-tert-Butyl-1H-benzimidazol-2-yl)-2-methoxy-2-methylpropan-1-amine]
130 nM	CC(C)(C)c1ccc2[nH]c([C@H](N)CC(N)=O)nc2c1 [Example 28, (3R)-3-Amino-3-(5-tert-butyl-1H-benzimidazol-2-yl)propanamide]
390 nM	CCC(C)(C)c1ccc2[nH]c([C@@H]3C[C@H](O)CN3)nc2c1 [Example 29, (3S,5S)-5-[5-(2-Methylbutan-2-yl)-1H-benzimidazol-2-yl]pyrrolidin-3-ol]
148 nM	CCC(C)(C)c1ccc2[nH]c([C@@H](N)CC(N)=O)nc2c1 [Example 30, (3S)-3-Amino-3-[5-(2-methylbutan-2-yl)-1H-benzimidazol-2-yl]propanamide]
125 nM	CCC(C)(C)c1ccc2[nH]c([C@@H](N)COC)nc2c1 [Example 31, (1R)-2-Methoxy-1-[5-(2-methylbutan-2-yl)-1H-benzimidazol-2-yl]ethanamine]
163 nM	N#Cc1ccc(-c2ccc3[nH]c([C@@H](N)C4CCCC4)nc3c2)cc1 [Example 32, 4-{2-[(S)-Amino(cyclopentyl)methyl]-1H-benzimidazol-5-yl}benzonitrile]
266 nM	CCC(C)(C)c1ccc2[nH]c(C3(N)Cc4ccccc4C3)nc2c1 [Example 33, 2-[5-(2-Methylbutan-2-yl)-1H-benzimidazol-2-yl]-2,3-dihydro-1H-inden-2-amine]
30.6 nM	N#Cc1ccc(-c2ccc3[nH]c(C4(N)Cc5ccccc5C4)nc3c2)cc1 [Example 34, 4-[2-(2-Amino-2,3-dihydro-1H-inden-2-yl)-1H-benzimidazol-5-yl]benzonitrile]
171 nM	CCC(C)(C)c1ccc2[nH]c([C@H](C)N)nc2c1 [Example 35, (1S)-1-[5-(2-Methylbutan-2-yl)-1H-benzimidazol-2-yl]ethanamine]

The remaining lines, values behind:

Structure (SMILES)	IC50
CC(C)CC[C@H](N)c1nc2cc(C(C)(C)C)ccc2[nH]1 [Example 1, (1S)-1-(5-tert-Butyl-1H-benzimidazol-2-yl)-4-methylpentan-1-amine]	127 nM
CC(C)(C)c1ccc2[nH]c(C3(N)Cc4ccccc4C3)nc2c1 [Example 2, 2-(5-tert-Butyl-1H-benzimidazol-2-yl)-2,3-dihydro-1H-inden-2-amine]	76 nM
CC(C)(C)c1ccc2[nH]c([C@@H](N)C3CCCC3)nc2c1 [Example 3, (S)-1-(5-tert-Butyl-1H-benzimidazol-2-yl)-1-cyclopentylmethanamine]	12.5 nM
CC(C)(C)c1ccc2[nH]c(C3(N)CCC3)nc2c1 [Example 4, 1-(5-tert-Butyl-1H-benzimidazol-2-yl)cyclobutanamine]	447 nM
CC(C)[C@H](N)c1nc2cc(C(C)(C)C)ccc2[nH]1 [Example 5, (1S)-1-(5-tert-Butyl-1H-benzimidazol-2-yl)-2-methylpropan-1-amine]	364 nM
CC(C)(C)c1ccc2[nH]c([C@@H](N)C(C)(C)C)nc2c1 [Example 6, (1S)-1-(5-tert-Butyl-1H-benzimidazol-2-yl)-2,2-dimethylpropan-1-amine]	433 nM
C[C@H](N)c1nc2cc(C(C)(C)C)ccc2[nH]1 [Example 7, (1S)-1-(5-tert-Butyl-1H-benzimidazol-2-yl)ethanamine]	439 nM
CC(C)C[C@@H](N)c1nc2cc(C(C)(C)C)ccc2[nH]1 [Example 8, (1R)-1-(5-tert-Butyl-1H-benzimidazol-2-yl)-3-methylbutan-1-amine]	108 nM
CC(C)[C@@H](N)c1nc2cc(C(C)(C)C)ccc2[nH]1 [Example 9, (1R)-1-(5-tert-Butyl-1H-benzimidazol-2-yl)-2-methylpropan-1-amine]	347 nM
C[C@@H](N)c1nc2cc(C(C)(C)C)ccc2[nH]1 [Example 10, (1R)-1-(5-tert-Butyl-1H-benzimidazol-2-yl)ethanamine]	607 nM
CCCC[C@H](N)c1nc2cc(C(C)(C)C)ccc2[nH]1 [Example 11, (1S)-1-(5-tert-Butyl-1H-benzimidazol-2-yl)pentan-1-amine]	29.7 nM
COC[C@H](N)c1nc2cc(C(C)(C)C)ccc2[nH]1 [Example 12, (1R)-1-(5-tert-Butyl-1H-benzimidazol-2-yl)-2-methoxyethanamine]	243 nM
CC(C)(C)c1ccc2[nH]c(C3(N)CCCC3)nc2c1 [Example 13, 1-(5-tert-Butyl-1H-benzimidazol-2-yl)cyclopentanamine]	496 nM
CC(C)C[C@H](N)c1nc2cc(C(C)(C)C)ccc2[nH]1 [Example 14, (1S)-1-(5-tert-Butyl-1H-benzimidazol-2-yl)-3-methylbutan-1-amine]	476 nM
CC(C)(C)c1ccc2[nH]c([C@H](N)C(C)(C)C)nc2c1 [Example 15, (1R)-1-(5-tert-Butyl-1H-benzimidazol-2-yl)-2,2-dimethylpropan-1-amine]	123 nM
C[C@H](O)[C@@H](N)c1nc2cc(C(C)(C)C)ccc2[nH]1 [Example 16, (1S,2S)-1-Amino-1-(5-tert-butyl-1H-benzimidazol-2-yl)propan-2-ol]	2510 nM
C[C@@H](O)[C@@H](N)c1nc2cc(C(C)(C)C)ccc2[nH]1 [Example 18, (1S,2R)-1-Amino-1-(5-tert-butyl-1H-benzimidazol-2-yl)propan-2-ol]	487 nM
C[C@H](O)[C@H](N)c1nc2cc(C(C)(C)C)ccc2[nH]1 [Example 19, (1R,2S)-1-Amino-1-(5-tert-butyl-1H-benzimidazol-2-yl)propan-2-ol]	176 nM
CC(C)(C)c1ccc2[nH]c([C@@H](N)CO)nc2c1 [Example 20, (2R)-2-Amino-2-(5-tert-butyl-1H-benzimidazol-2-yl)ethanol]	106 nM
CO[C@H](C)[C@H](N)c1nc2cc(C(C)(C)C)ccc2[nH]1 [Example 21, (1R,2R)-1-(5-tert-Butyl-1H-benzimidazol-2-yl)-2-methoxypropan-1-amine]	32.6 nM
CC(C)(C)c1ccc2[nH]c([C@@H]3C[C@H](O)CN3)nc2c1 [Example 22, (3S,5S)-5-(5-tert-Butyl-1H-benzimidazol-2-yl)pyrrolidin-3-ol]	108 nM
